{"source": "patent US7241803B2", "about": "“Compounds for inhibition of HIV infection by blocking HIV entry” (New York Blood Center, priority 2002, dated 2007)", "key": {"[1]": {"molecular_target": "gp41 six-helix bundle formed by N36 and C34 (Human immunodeficiency virus type 1 group M subtype B, UniProt P04578)", "sequence (P04578 546-581)": "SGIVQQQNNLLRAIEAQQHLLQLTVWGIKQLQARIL", "conditions": "for inhibitory activity on gp41 six-helix bundle formation (sandwich ELISA): graded concentrations, up to 80 μg/ml, compound preincubated with N36; for inhibition of six-helix bundle formation between N36 and C34 (screening ELISA): single dose 25 μg/ml", "protocol": "ELISA for screening for compounds that inhibit the gp41 six-helix bundle formation. A sandwich ELISA as previously described (23) was used to screen for compounds that inhibit the gp41 six-helix bundle formation. Briefly, peptide N36 (2 μM) was pre-incubated with a test compound at the indicated concentrations at 37° C. for 30 min, followed by addition of C34 (2 μM). In the control experiments, N36 was pre-incubated with C34 at 37° C. for 30 min, followed by addition of the test compound. After incubation at 37° C. for 30 min, the mixture was added to wells of a 96-well polystyrene plate (Costar, Corning Inc., Corning, N.Y.) which were precoated with IgG (2 μg/ml) purified from rabbit antisera directed against the N36/C34 mixture. […] Absorbance at 450 nm was measured using an ELISA reader (Ultra 384, Tecan, Research Triangle Park, N.C.). The percent inhibition by the compounds was calculated as previously described (18) and the concentration for 50% inhibition (IC50) was calculated using the software designated Calcusyn (7), kindly provided by Dr. T. C. Chou (Sloan-Kettering Cancer Center, New York, N.Y.)."}, "[2]": {"tested_on": "HIV-1 SF2 (clade B, X4)", "assay": "infection by laboratory-adapted HIV-1 strain, p24 production", "format": "cell-based", "description": "Assessment of anti-HIV-1 infectivity. […] Reactions were terminated by addition of 1N H2SO4."}, "[3]": {"tested_on": "HIV-1 AZT-R (clade B, X4)", "conditions": "Laboratory-adapted AZT-R (clade B, X4)", "protocol": "(§1) Assessment of anti-HIV-1 infectivity. The inhibitory activity of compounds on infection by laboratory-adapted HIV-1 strains was determined as previously described (18). In brief, 1×10^4 MT-2 cells were infected with HIV-1 at 100 TCID50 (50% tissue culture infective dose) in 200 μl of RPMI 1640 medium containing 10% FBS in the presence or absence of compounds at graded concentrations overnight. For the time-of-addition assay, compounds were added at various time post-infection. Then the culture supernatants were removed and fresh media were added. On the fourth day post-infection, 100 μl of culture supernatants were collected from each well, mixed with equal volumes of 5% Triton X-100 and assayed for p24 antigen, which was quantitated by ELISA (51). Briefly, the wells of polystyrene plates (Immulon 1B, Dynex Technology, Chantilly, Va.) were coated with HIV immunoglobulin (HIVIG), which was prepared from plasma of HIV-seropositive donors with high neutralizing titers against HIV-1IIIB as previously described (44) in 0.085 M carbonate-bicarbonate buffer (pH 9.6) at 4° C. overnight, followed by washes with PBS-T buffer (0.01M PBS containing 0.05% Tween-20) and blocking with PBS containing 1% dry fat-free milk (Bio-Rad Inc., Hercules, Calif.). Virus lysates were added to the wells and incubated at 37° C. for 1 h. […] Absorbance at 450 nm was recorded in an ELISA reader (Ultra 384, Tecan). […]"}, "[4]": {"tested_on": "MT-2 & H9/HIV-1IIIB (clade B, X4)", "assay": "cell-cell fusion, dye transfer assay", "format": "cell-based", "conditions": "MT-2 & H9/HIV-1IIIB (clade B, X4)", "protocol": "Inhibition of cell-cell fusion. A dye transfer assay was used for detection of HIV-1 mediated cell fusion as previously described (21, 24, 34). H9/HIV-1IIIB cells were labeled with a fluorescent reagent, Calcein-AM (Molecular Probes, Inc., Eugene, Oreg.) and then incubated with MT-2 cells (ratio=1:5) in 96-well plates at 37° C. for 2 hrs in the presence or absence of compounds tested. The fused and unfused Cacein-labeled HIV-1-infected cells were counted under an inverted fluorescence microscope (Zeiss, Germany) with an eyepiece micrometer disc. The percentage of inhibition of cell fusion and the IC50 values were calculated as previously described (21)."}, "[5]": {"tested_on": "H9/HIV-1IIIB cells cocultured with MT-2 cells", "assay": "syncytium-formation assay for screening HIV-1 fusion inhibitors", "format": "cell-based", "conditions": "single dose 25 μg/ml", "description": "Syncytium-formation assay for screening HIV-1 fusion inhibitors. […] HIV-1 induced syncytium formation was observed under an inverted microscope and scored as “−” (no syncytium was observed), “±” (about 50% syncytia were inhibited), and “+” (no syncytium formation was inhibited). The compounds scored with “−” and “±” were selected for further screening by ELISA for inhibitors against the gp41 six-helix bundle formation."}, "[6]": {"molecular_target": "T1, CXCR4 (Homo sapiens, UniProt P61073)", "T1 construct": "expressed in transfected cells; host or cells: U373-MAGI-CXCR4CEM cells", "T1 sequence (P61073 whole entry)": "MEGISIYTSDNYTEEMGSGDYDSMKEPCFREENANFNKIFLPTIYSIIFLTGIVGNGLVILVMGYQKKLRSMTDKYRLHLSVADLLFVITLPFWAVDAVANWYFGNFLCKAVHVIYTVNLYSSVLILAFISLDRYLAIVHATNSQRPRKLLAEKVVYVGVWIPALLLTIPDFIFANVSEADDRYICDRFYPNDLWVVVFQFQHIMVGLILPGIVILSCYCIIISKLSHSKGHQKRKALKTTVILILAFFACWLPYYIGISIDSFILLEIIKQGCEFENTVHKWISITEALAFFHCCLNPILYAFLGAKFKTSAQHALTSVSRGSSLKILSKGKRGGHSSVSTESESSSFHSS", "assay": "inhibition of anti-CXCR4 antibody 12G5 binding to CXCR4-expressing cells, cell-based ELISA", "conditions": "25 μM", "protocol": "Inhibition of anti-CXCR4 antibody binding to CXCR4-expressing cells. The inhibition of the binding of anti-CXCR4 antibody to CXCR4-expressing cells was determined using a cell-based ELISA as described previously (52). Briefly, U373-MAGI-CXCR4CEM cells (1×10^5/well) which express CXCR4 molecules were cultured in a 96-well plate at 37° C. overnight. The cells were fixed with 5% formaldehyde at room temperature for 15 min and washed with PBS-T. The cells were incubated with anti-CXCR4 mAb 12G5 at 37° C. for 1 h in the presence or absence of compounds tested. Isotype IgG2a was used as a control."}, "[7]": {"tested_on": "HIV-1 RF (clade B, X4)", "assay": "infection by laboratory-adapted HIV-1 strain, p24 production", "format": "cell-based", "protocol": "as §1"}, "[8]": {"molecular_target": "N36/C34 mixture (Human immunodeficiency virus type 1 group M subtype B, UniProt P04578)", "sequence (P04578 546-581)": "as the sequence (P04578 546-581) above", "conditions": "100 μg/ml", "protocol": "Circular dichroism (CD) spectroscopy. A test compound at graded concentrations was incubated with N36 in phosphate buffer (pH 7.2) at 37° C. for 30 min before addition of C34 in the same buffer at equimolar concentration. After incubation at 37° C. for 30 min, the mixture was cooled down and CD spectra of the mixture were measured on the J-715 CD spectrometer equipped with a thermoelectric temperature controller (Jasco, Japan). The instrument was calibrated using a two point calibration method with (+)-10-camphorsulfonic acid. The wavelength dependence of molar ellipticity (θ) was monitored at 0° C. by 5 scans in 1 nm increments with a sampling time of 10 seconds as previously described (12, 51). The CD signal at 222 nm was measured as a function of temperature. Thermal melts were performed in 2° C. steps, with 2 min of equilibration at each temperature and an acquisition time of 0.5 min. The midpoint of the thermal unfolding transition (Tm) was estimated from the maximum of the first derivative of the CD signal at 222 nm (1)."}}}
{"compound": "Cc1ccc(C)n1-c1ccc(C(=O)O)c(O)c1", "note": "[NB-2]", "values": [{"measurement": "inhibitory activity on gp41 six-helix bundle formation (sandwich ELISA)", "setting": "[1]", "result": "significantly inhibited"}, {"measurement": "inhibition of six-helix bundle formation between N36 and C34 (screening ELISA)", "setting": "[1]", "result": "significantly inhibited"}, {"measurement": "IC50 (μg/ml) for inhibition of p24 production", "setting": "[2]", "result": "0.44 ± 0.03", "unit": "µg/mL"}, {"measurement": "IC50 (μg/ml) for inhibition of p24 production", "setting": "[3]", "result": "1.41 ± 0.03", "unit": "µg/mL"}, {"measurement": "IC50 (μg/ml) for inhibition of cell-cell fusion", "setting": "[4]", "result": "1.53 ± 0.17", "unit": "µg/mL"}, {"measurement": "inhibition of HIV-1 mediated syncytium formation", "setting": "[5]", "result": "significantly inhibited"}, {"measurement": "inhibition of 12G5 binding to U373-MAGI-CXCR4CEM cells", "setting": "[6]", "result": "no inhibitory activity"}, {"measurement": "IC50 (μg/ml) for inhibition of p24 production", "setting": "[7]", "result": "0.45 ± 0.04", "unit": "µg/mL"}, {"measurement": "α-helicity of the N36/C34 mixture", "setting": "[8]", "result": "significantly disrupted"}]}
{"compound": "O=C(O)c1cc(-n2cccc2)ccc1Cl", "note": "[NB-64]", "values": [{"measurement": "inhibitory activity on gp41 six-helix bundle formation (sandwich ELISA)", "setting": "[1]", "result": "significantly inhibited"}, {"measurement": "inhibition of six-helix bundle formation between N36 and C34 (screening ELISA)", "setting": "[1]", "result": "significantly inhibited"}, {"measurement": "IC50 (μg/ml) for inhibition of p24 production", "setting": "[2]", "result": "1.34 ± 0.06", "unit": "µg/mL"}, {"measurement": "IC50 (μg/ml) for inhibition of p24 production", "setting": "[3]", "result": "6.25 ± 0.25", "unit": "µg/mL"}, {"measurement": "IC50 (μg/ml) for inhibition of cell-cell fusion", "setting": "[4]", "result": "2.02 ± 0.19", "unit": "µg/mL"}, {"measurement": "inhibition of HIV-1 mediated syncytium formation", "setting": "[5]", "result": "significantly inhibited"}, {"measurement": "inhibition of 12G5 binding to U373-MAGI-CXCR4CEM cells", "setting": "[6]", "result": "no inhibitory activity"}, {"measurement": "IC50 (μg/ml) for inhibition of p24 production", "setting": "[7]", "result": "0.96 ± 0.03", "unit": "µg/mL"}, {"measurement": "α-helicity of the N36/C34 mixture", "setting": "[8]", "result": "significantly disrupted"}]}
